These results are taken from PMC3789677, “Select Dietary Phytochemicals Function as Inhibitors of COX-1 but Not COX-2” (PLoS ONE, 2013).

Experiment [1] deals with T1, COX-1 (Ovis aries, UniProt P05979).
T1 construct: purchased Cayman Chemical Company (Ann Arbor, MI)
T1 sequence (P05979 25-600): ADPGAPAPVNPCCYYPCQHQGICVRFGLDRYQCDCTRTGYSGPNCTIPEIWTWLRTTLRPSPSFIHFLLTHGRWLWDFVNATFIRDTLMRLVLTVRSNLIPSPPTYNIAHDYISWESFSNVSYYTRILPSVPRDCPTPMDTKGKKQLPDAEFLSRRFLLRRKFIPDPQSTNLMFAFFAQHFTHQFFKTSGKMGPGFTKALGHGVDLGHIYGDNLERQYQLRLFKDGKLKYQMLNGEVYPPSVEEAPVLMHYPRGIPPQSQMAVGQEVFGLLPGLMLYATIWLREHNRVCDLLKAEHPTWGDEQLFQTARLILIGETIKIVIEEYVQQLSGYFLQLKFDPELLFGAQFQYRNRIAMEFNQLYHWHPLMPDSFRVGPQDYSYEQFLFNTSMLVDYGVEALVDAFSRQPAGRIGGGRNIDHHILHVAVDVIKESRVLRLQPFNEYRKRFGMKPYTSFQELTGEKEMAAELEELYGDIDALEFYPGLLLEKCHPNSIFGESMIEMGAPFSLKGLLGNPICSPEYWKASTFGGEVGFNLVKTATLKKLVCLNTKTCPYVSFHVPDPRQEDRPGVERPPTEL
As to the kind of experiment: In vitro COX enzyme assay (COX Inhibitor Screening Kit, Cayman). The class given is biochemical. Conditions: means ± S.E.M. of 3 independent experiments. As to the method: (§1) COX activity was evaluated using a COX Inhibitor Screening Kit from Cayman Chemical Company (Ann Arbor, MI) according to the manufacturer’s instructions.

The target in experiment [2] is T2, COX-2 (Homo sapiens, UniProt P35354).
T2 construct: purchased Cayman Chemical Company (Ann Arbor, MI)
T2 sequence (P35354 18-604): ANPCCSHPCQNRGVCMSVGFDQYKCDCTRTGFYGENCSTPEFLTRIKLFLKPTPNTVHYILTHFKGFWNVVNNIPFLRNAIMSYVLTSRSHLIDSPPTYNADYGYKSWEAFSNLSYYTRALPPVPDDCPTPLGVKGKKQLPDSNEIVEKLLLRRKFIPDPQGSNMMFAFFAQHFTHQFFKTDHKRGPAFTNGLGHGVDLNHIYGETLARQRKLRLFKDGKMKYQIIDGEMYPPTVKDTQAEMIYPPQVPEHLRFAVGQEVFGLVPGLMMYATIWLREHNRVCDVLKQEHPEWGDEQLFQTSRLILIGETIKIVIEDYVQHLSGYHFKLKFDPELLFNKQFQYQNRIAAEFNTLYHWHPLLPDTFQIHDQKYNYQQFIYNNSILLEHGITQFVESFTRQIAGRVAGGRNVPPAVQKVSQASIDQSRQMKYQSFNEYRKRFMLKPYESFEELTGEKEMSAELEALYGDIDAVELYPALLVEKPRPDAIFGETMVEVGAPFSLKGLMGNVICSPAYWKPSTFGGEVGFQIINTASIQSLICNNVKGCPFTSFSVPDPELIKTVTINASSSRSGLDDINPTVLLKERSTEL
Described as above. The class given is biochemical. To be noted: means ± S.E.M. of 3 independent experiments. How it is done:
as §1

Experiment [3] deals with human umbilical vein endothelial cells (HUVECs). As to the kind of experiment: TXB2 and 6-keto PGF1α assay in HUVECs (ratio as cardiovascular toxicity biomarker). The class given is cell-based. To be noted: 3 µM.
Method: Cells (6×10^5) were seeded in a six-well plate in the presence of 10% FBS. At 70-80% confluence, cells were pretreated with vehicle or individual compounds in 1 mL fresh medium for 2 h. […] Supernatant fractions were collected for prostaglandin measurement using enzyme immunoassay kits (Cayman Chemical Company).
Figure 2 Effects of dietary phytochemicals on (A) TXB2 and (B) 6-keto-PGF1α under physiological conditions. HUVECs were seeded in a six-well-plate (6×10^5 cells per well). At 70-80% confluence, 1 mL fresh medium containing DMSO or 3 µM of each individual compound was added and cells were further incubated for 8 h. Supernatant fractions were collected for prostaglandin measurement. (C) The ratio of TXB2/6-keto-PGF1α. Data are presented as means ± S.E.M (n = 4) and the asterisk(s) indicate a significant (*, p < 0.05; ***, p < 0.001) difference versus the vehicle control group.

Structures are written as SMILES.

In experiment [1], `O=c1cc(-c2ccc(O)cc2)oc2cc(O)cc(O)c12` [Apigenin] came in with an IC50 of 94.1 ± 12.3 µM. In the case of `O=C1C[C@@H](c2ccc(O)cc2)Oc2cc(O)cc(O)c21` [Naringenin], the IC50 in experiment [2] and in experiment [1] was > 400 µM throughout. `COc1cc(/C=C/C(=O)CC(=O)/C=C/c2ccc(O)c(OC)c2)ccc1O` [Curcumin] had an IC50 in experiment [1] of 330 ± 34.3 µM.

As for `Oc1ccc(/C=C/c2cc(O)cc(O)c2)cc1` [Resveratrol], in experiment [1], the midpoint of inhibition, the IC50, lay at 3.4 ± 1.1 µM. `O=c1c(O)c(-c2ccc(O)cc2)oc2cc(O)cc(O)c12` [Kaempferol]: the IC50 turned out to be 236 ± 19.7 µM in experiment [2] and 111 ± 7.5 µM in experiment [1]. For `O=c1c(-c2ccc(O)cc2)coc2cc(O)cc(O)c12` [Genistein], the IC50 in experiment [2] came out at 256 ± 35.7 µM; in experiment [1] it was 9.9 ± 2.3 µM. As for `O=c1c(O)c(-c2ccc(O)c(O)c2)oc2cc(O)cc(O)c12` [Quercetin], the IC50 in experiment [2] and in experiment [1] was > 400 µM in each case.

For `O=C(O[C@@H]1Cc2c(O)cc(O)cc2O[C@@H]1c1cc(O)c(O)c(O)c1)c1cc(O)c(O)c(O)c1` [EGCG], the IC50 in experiment [2] turned out to be 28.6 ± 3.8 µM; in experiment [1] it was 17.9 ± 4.2 µM. Besides, the “ratio of TXB2/6-keto-PGF1α” value in experiment [3] (physiological conditions, 8 h (Figure 2)) is “most potent inhibitory effect”; in experiment [3] (pro-inflammatory conditions, 2 h pretreatment then IL-1β 17.5 ng/mL for 8 h (Figure 3)), “most potent inhibitory effect”.

As usually defined, the IC50 is the concentration needed to halve the response being measured. A high value points to weaker potency in that assay.
